Patent US8609724B2, “Method of treating cancer using dichloroacetate” (priority 2005, dated 2013)
Entries after “also recorded” stand apart in the source; their conditions may differ.

Columns and labels:
cancer cells = assay: Free cytosolic calcium (fluo-3, confocal); format: cell-based, human; conditions: treated vs control cells
NFAT = NFAT and Kv1.5 confocal imaging; format: cell-based, human; conditions: A549 cells
Protocol: Imaging was performed using a Zeiss LSM 510 confocal microscope as described. Apoptag apoptosis detection kit (TUNEL stain, Serologicals, Norcross, Ga.) and the proliferating cell nuclear antigen (PCNA) antibody (DAKO, Carpinteria, Calif.) were used as per manufacturer's instructions on both formaldehyde fixed cells and paraffin-embedded tissue sections after antigen retrieval. Nuclear staining was made using 4′,6′-diamidino-2-phenylindole dihydrochloride (DAPI, 300 nM; Molecular Probes) in fixed tissue or cells as previously described Apoalert Annexin V kit (Clontech, Palo Alto, Calif.), cytochrome c antibody (Pharmingen, San Diego, Calif.), Apoptosis inducing factor (Santa Cruz Calif. USA) NFAT and Kv1.5 (Sigma) and mitotracker red (500 nM, Molecular Probes) were used as described by the company instructions. Mitochondrial membrane potential (ΔΨm) was studied in live cancer cultured cells, using tetramethylrhodamine methyl-ester perchlorate (TMRM) (20 nmol/L) for 30 minutes (37° C.) and Hoechst (1.0 umol/L) nuclear staining for 10 minutes (Molecular Probes, Canada).

**Q.** What does the source list for OO [H2O2]?
**A.** free cytosolic calcium concentration (cancer cells): decreases the intracellular Ca++ levels; also recorded: Control cells had more calcium than both DCA and H2O2 treated cells; Kv1.5 expression (confocal immunostaining) (NFAT): increased Kv1.5 expression; NFAT activation (nuclear localization) (NFAT): blocked the activation of NFAT
